Experimental findings from US10172846 are described below.

Where two headings read alike, the source gives them in different places.

The conditions of data set [1]: rcm bond, 14-membered ring.
For data set [2] the following is noted: rcm bond, Hoveyda-Grubbs 2nd generation.
The conditions of data set [3]: from (1R,2)-1-{[(1R,2R,4R)-2-(N′-tert-Butoxycarbonyl-N-hept-6-enyl-hydrazinocarbonyl)-4-(7-methoxy-2-phenyl-quinolin-4-yloxy)-cyclopentanecarbonyl]-amino}-2-vinyl-cyclopropanecarboxylic acid ethyl ester; rcm bond; 15-membered ring; Hoveyda-Grubbs II; DCM; 7.0 mM.

On to `CCOC(=O)C12CC1C=CCCCCNC(=O)C1CC(Oc3cc(-c4ccccc4)nc4cc(OC)ccc34)CC1C(=O)N2C` (centres unmarked), for which the ring closure, isolated yield in data set [1] (from 1-{[2-Hex-5-enyl-methyl-carbamoyl)-4-(7-methoxy-2-phenyl-quinolin-4-yloxy)-cyclopentanecarbonyl]-amino-2-vinyl-cyclopropanecarboxylic add ethyl ester, Hoveyda-Grubbs II, dichloroethane, 2.02 mM) was determined as 37%.
For `CCOC(=O)[C@@]12C[C@H]1C=CCCCCNC(=O)[C@@H]1C[C@H](Oc3cc(-c4ccccc4)nc4cc(OC)ccc34)C[C@H]1C(=O)N2`, the ring closure, yield of all isomers in data set [2] (from C=CCCCCNC(=O)[C@@H]1C[C@H](Oc2cc(-c3ccccc3)nc3cc(OC)ccc23)C[C@H]1C(=O)N[C@]1(C(=O)OCC)C[C@H]1C=C, DCM, 5.8 mM, 40.0 °C) was 32%.
Take `CCOC(=O)C12CC1C=CCCCCN(C)C(=O)C1CC(OS(=O)(=O)c3ccc(Br)cc3)CC1C(=O)N2` (centres unmarked): the ring closure, isolated yield in data set [1] (from 1-{(4-(4-Bromo-benzensulphonyloxy-2-(hex-5-enyl-methyl-carbamoyl)-cyclopentanecarbonyl-amino}2-vinyl-cyclopropanecarboxylic add ethyl ester)), Hoveyda-Grubbs I, DCM, 4.2 mM) is 60%.
In turn, `CCOC(=O)[C@@]12C[C@H]1C=CCCCCN(C)C(=O)[C@@H]1C[C@H](Oc3cc(-c4ccccc4)nc4cc(OC)ccc34)C[C@H]1C(=O)N2` yielded a ring closure, yield of all isomers in data set [2] (from C=CCCCCN(C)C(=O)[C@@H]1C[C@H](Oc2cc(-c3ccccc3)nc3cc(OC)ccc23)C[C@H]1C(=O)N[C@]1(C(=O)OCC)C[C@H]1C=C, DCE, 2.02 mM, 83.0 °C) of 37%.
For the molecule `CN1CCCCC=CC2CC2(C(=O)NS(=O)(=O)C2CC2)NC(=O)C2CC(O)CC2C1=O` (centres unmarked), in data set [1] (from 4-Hydroxycyclopentane-1,2-dicarboxylic acid 1-[(1-cyclopropanesulphonylaminocarbonyl-2-vinylcyclopropyl)-amide] 2-(hex-5-enyl-methylamide), Hoveyda-Grubbs II, 1,2-dichloroethane, 5.4 mM, 160.0 °C), the ring closure, isolated yield turned out to be 26%.
Consider `CCOC(=O)[C@@]12C[C@H]1/C=C\CCCCCN(NC(=O)OC(C)(C)C)C(=O)[C@@H]1C[C@H](Oc3cc(-c4ccccc4)nc4cc(OC)ccc34)C[C@H]1C(=O)N2`, for which the ring closure, yield after HPLC in data set [3] was determined as 70%. In data set [2] (from C=CCCCCCN(NC(=O)OC(C)(C)C)C(=O)[C@@H]1C[C@H](Oc2cc(-c3ccccc3)nc3cc(OC)ccc23)C[C@H]1C(=O)N[C@]1(C(=O)OCC)C[C@H]1C=C, DCM, 6.97 mM, 40.0 °C, 16.0 h), this molecule registered a ring closure, yield of all isomers of 70%.
In data set [1] (from 1-{[2-Hex-5-enylcarbamoyl-4-(7-methoxy-2-phenyl-quinolin-4-yloxy)-cyclopentanecarbonyl]-amino}-2-vinyl-cycloprpanecarboxylic acid ethyl ester, Hoveyda-Grubbs II, DCM, 5.8 mM), `CCOC(=O)C12CC1C=CCCCCNC(=O)C1CC(Oc3cc(-c4ccccc4)nc4cc(OC)ccc34)CC1C(=O)N2` (centres unmarked) yielded a ring closure, isolated yield of 32%.
